| Structure (SMILES) | melting point |
| --- | --- |
| O=c1[nH][nH]c(=O)[nH]1 | 250 °C |
| c1coc(P(c2ccco2)c2ccco2)c1 | 62 °C |
| Br/C(=C(/Br)c1ccccc1)c1ccccc1 | 228 °C |
| O=c1ncn2nc(Sc3ccccc3)ccc2c1-c1c(Cl)cccc1Cl | 262 to 265 °C |
| O=[N+]([O-])c1ccc(NCc2ccccc2)c2nonc12 | 206 to 209 °C |
| CCOC(=O)c1cc(-c2ccco2)nn1C | 57 to 58 °C |
| O=[N+]([O-])c1cc[nH]n1 | 173 to 175 °C |
| CCOP(=S)(OCC)Oc1ccc(=O)n(-c2ccccc2)n1 | 56.2 °C |
| CCc1ccc(NC(N)=S)cc1 | 138 °C |
| C=NCC#N | 129 °C |
| CC(=O)Cc1c[nH]c2ccccc12 | 116 °C |
| CC12C=CC(CC1)C2(C)C (stereo unspecified) | 113 °C |
| CC(Oc1ccc(Oc2ccc(Cl)cc2Cl)cc1)C(=O)O (stereo unspecified) | 120 °C |
| CC1=CCC(=C(C)C)CC1 | < 25 °C |
| c1cncc(C2CCCCN2)c1 (stereo unspecified) | 9 °C |
| O=C1c2ccccc2CC2c3ccccc3C=CN12 (stereo unspecified) | 128 °C |
| COc1ccc(-n2c(SC)nc3nc(SC)n(C)c3c2=O)cc1 | 213 to 214 °C |
| CCOC(=O)C(C)Oc1ccc(Oc2cnc3cc(Cl)ccc3n2)cc1 (stereo unspecified) | 92 °C |
| COP(=O)(OC)OC | -46 °C |
| OC1C(O)C(O)C(O)C(O)C1O (stereo unspecified) | 230 °C |
| OCC1(O)COC(O)(CO)CO1 (stereo unspecified) | 79 °C |
| CCCCCc1cc(O)c2c(c1)OC(C)(C)C1CCC(C)=CC21 (stereo unspecified) | 200 °C |
| Cc1nnc(SCC2=C(C(=O)O)N3C(=O)C(NC(=O)Cn4cnnn4)C3SC2)s1 (stereo unspecified) | 198 °C |
| Clc1c(Cl)c(Cl)c2c(Cl)c(Cl)c(Cl)c(Cl)c2c1Cl | 198 °C |

| Structure (SMILES) | melting point |
| --- | --- |
| CCCCCCCCCCCCCC=CC(O)C(CO)NC(C)=O (stereo unspecified) | 93 to 96 °C |
| O=C(O)C=Cc1ccc(C=CC(=O)O)cc1 | 300 °C |
| COc1cc(NCc2ccc3nc(N)nc(N)c3c2C)cc(OC)c1OC | 216 °C |
| COc1ccccc1Oc1ccc(S(=O)(=O)Cl)cc1 | 54 to 56 °C |
| Cc1ccccc1C=Cc1ccccc1C | 83 °C |
| O=Cc1cc([N+](=O)[O-])ccc1F | 58 °C |
| CC12CCC3C(CCC4CC=CCC43C)C1CCC2=O (stereo unspecified) | 104 °C |
| COc1ccccc1/C=C(\C#N)c1nc2ccccc2n1C | 226 °C |
| CCc1ccc(C(c2ccc(CC)o2)c2cc3c(cc2[N+](=O)[O-])OCCO3)o1 | 86 °C |
| Fc1ccc2ccccc2c1 | 61 °C |
| ClCCOCOCCCl | -32 °C |
| CCOP(=S)(NC(C)C)Oc1ccccc1C(=O)OC(C)C (stereo unspecified) | -12 °C |
| Nc1cc(F)ccc1Br | 44 °C |
| O=C(O)c1c(F)c(Cl)c(F)c(Cl)c1F | 142 to 143 °C |
| CCOc1cc2c(cc1OC)CCNC2CC(C)C (stereo unspecified) | 151 °C |
| CC(C)CCOC(=O)c1cc([N+](=O)[O-])cc([N+](=O)[O-])c1 | 61 °C |
| ClC1Cc2cc3c(cc21)OCO3 (stereo unspecified) | 55 °C |
| FC(Br)C(F)(F)F (stereo unspecified) | -80 °C |
| Cc1cc(C)c(C)c(I)c1C | 79 °C |
| CCN1CCN(c2cc3c(cc2F)c(=O)c(C(=O)O)cn3C2CC2)CC1 | 220 °C |
| O=C(C(Cl)Cl)C(Cl)(Cl)Cl | 2.1 °C |
| O=C(O)CN(CC(=O)O)Cc1cc2c(cc1O)Oc1cc(O)c(CN(CC(=O)O)CC(=O)O)cc1C21OC(=O)c2ccccc21 | 200 °C |
| CCOC(=O)C1=NN(c2ccccc2)C(=O)C1CC1C(=O)N(c2ccccc2)N=C1C(=O)OCC (stereo unspecified) | 179 °C |
| Cc1ccc2ncoc2c1 | 29 to 31 °C |

| Structure (SMILES) | melting point |
| --- | --- |
| O=C(NCC1CCCCN1)c1cc(OCC(F)(F)F)ccc1OCC(F)(F)F (stereo unspecified) | 146 °C |
| Cc1cc[nH]n1 | 36.5 °C |
| CC1=C(C(=O)Nc2ccccc2)SCCO1 | 91.5 °C |
| Cc1ccc(C(=O)C=Cc2ccc(Cl)cc2)cc1 | 122 °C |
| NNC(=O)C1CCCCC1 | 153 to 155 °C |
| Cc1nn(C)c(OCC(=O)c2ccccc2)c1C(=O)c1ccc(Cl)cc1Cl | 112 °C |
| CCC(Cl)CC | -105 °C |
| CN1CCCN(c2ccc(CO)cc2)CC1 | 97 °C |
| CCCCN(CCCC)CCCC | -70 °C |
| NC1CONC1=O (stereo unspecified) | 156 °C |
| CC(C)OC(=O)Cc1csc(-c2ccc(Cl)cc2)n1 | 82 to 84 °C |
| COc1c(F)cc(O)cc1F | 69 °C |
| Ic1cccc(-c2ccccc2)c1 | 26.5 °C |
| CC1CC(C)CC(C)C1 (stereo unspecified) | -49.7 °C |
| CCC1CCCCN1C(=O)COC(=O)c1ccccc1 (stereo unspecified) | 54.5 °C |
| O=C(Oc1c(F)c(F)c(F)c(F)c1F)Oc1c(F)c(F)c(F)c(F)c1F | 48 to 51 °C |
| CCOP(=O)(NC(C)C)Oc1ccc(SC)c(C)c1 (stereo unspecified) | 49 °C |
| COC(=O)N/C=C/c1ccccc1[N+](=O)[O-] | 146 to 148 °C |
| Cc1ccc(C(=O)NCC(=O)O)cc1 | 162 to 166 °C |
| CC1=C(C#N)C(c2cccc([N+](=O)[O-])c2)C(C(=O)OCCN(C)C)=C(C)N1 (stereo unspecified) | 72 to 73 °C |
| Brc1ccc2c(c1)Oc1ccc(Br)cc1O2 | 193 °C |
| CCOP(=O)(N=C1SCCS1)OCC | 41 °C |
| COc1ccc(OC)c(CCl)c1 | 69 to 71 °C |
| O=C(CC(=O)c1cc(Br)ccc1O)c1ccccc1 | 100 to 103 °C |

More lines, now with the values ahead:

| melting point | Structure (SMILES) |
| --- | --- |
| 71.5 to 72.5 °C | Oc1ccc(Br)c(F)c1 |
| 64 °C | O=[N+]([O-])c1ccc(S(=O)(=O)Cl)cc1C(F)(F)F |
| 68 °C | CC(=O)C(Cc1ccccc1)C(=O)OC1CC(C)CCC1C(C)C (stereo unspecified) |
| 234 °C | Clc1ccccc1-c1nc2ccccc2[nH]1 |
| 15 °C | CC(=O)C(C)O (stereo unspecified) |
| 146 °C | Clc1ccc(C(Cn2ccnc2)OCc2csc3c(Cl)cccc23)c(Cl)c1 (stereo unspecified) |
| 75 °C | CC(C)(C)OC(=O)NCCC(=O)O |
| 122 °C | CCCCCCCCCCOc1c(OC)cc(C(N)=O)cc1OC |
| -15 °C | O=C(c1ccc(F)cc1)C1CC1 |
| 53 to 59 °C | CC1(C)C=[N+]([O-])C(C)(C)C1 |
| 79 °C | CCN(C(=O)N(CC)c1ccccc1)c1ccccc1 |
| 335 to 338 °C | O=C1CCC(c2ccc(NC(=O)Nc3ccccc3)cc2)=NN1 |
| 89 °C | Cc1cc(-c2ccccc2)n2nc(C(F)(F)F)nc2n1 |
| 222 °C | O=C(O)c1cc2sccc2s1 |
| 145 °C | O=CC(O)CO (stereo unspecified) |
| 250 °C | Cc1nc2ccccc2n1CCC(=O)NN1C(=O)CSC1c1ccccc1Cl (stereo unspecified) |
| 105 °C | CN(CCCN1c2ccccc2CCc2ccccc21)CC(=O)c1ccc(Cl)cc1 |
| 153 °C | CCCCOc1ccc(CC(=O)NO)cc1 |
| 217 to 218 °C | Oc1nccc(C(F)(F)F)n1 |
| 122 to 124 °C | O=[N+]([O-])c1ccc(Oc2ccc(N=C=S)cc2)cc1 |
| 140 °C | CC(C)(CC(=O)O)C(=O)O |
| 205 to 210 °C | CC(=O)OC1CCC2(C)C(C1)CC1(OCCO1)C1C2CCC2(C)C1CCC21OCCO1 (stereo unspecified) |
| 280 to 284 °C | Nc1ncc2nc[nH]c2n1 |
| 193 to 197 °C | CCCCCCCCCCCC(=O)OC1OC(CO)C(OC2OC(CO)C(O)C(O)C2O)C(O)C1O (stereo unspecified) |
| 68 to 70 °C | O=C(O)c1cccc2c1OCCCO2 |
| 57.6 °C | c1ccc(CCNc2cccc3cccnc23)cc1 |
| 126 to 127 °C | CC(=O)Nc1ccc(S(=O)(=O)NCCO)cc1 |

| melting point | Structure (SMILES) |
| --- | --- |
| 58.5 °C | O=S(=O)(Nc1cc(F)c(F)cc1F)C(F)(F)F |
| 197 °C | On1nnc2ccc(Cl)cc21 |
| 46 °C | CCCCCCc1ccc(C(=O)Oc2ccc(C#N)cc2)cc1 |
| 173 °C | Cc1ccc(C(=O)C2=NOC3C(=O)N(c4ccc(F)cc4)C(=O)C23)cc1 (stereo unspecified) |
| 104 °C | COC(=O)C(C#N)=C(SCc1ccccc1)SCc1ccccc1 |
| 145 to 147 °C | Cc1cc(C(=O)O)c(-c2ccccc2)o1 |
| 41.5 °C | CC(C)(CCl)C(=O)O |
| 197 to 198 °C | O=[N+]([O-])c1cc2c(cc1C/C(=N/Nc1ccccc1)c1ccccc1)n1n(-c3ccccc3)n21 |
| 283 °C | Cn1c(=O)c(C2=NNC(=O)C2=Cc2ccccc2)c(O)c2ccccc21 |
| 20 °C | CCCN(CCC)C(=O)COC(=O)c1ccccc1 |
| 120 to 122 °C | O=C(O)c1ccc(C(F)(F)F)nc1Cl |
| 87 °C | Cc1ccc(C(c2ccc(C)o2)c2ccccc2C#N)o1 |
| 250 to 252 °C | CC(=O)OC1CC2C(C)C(=O)C3(C(OC(C)=O)CC4C(C)(C)CCC(OC(C)=O)C4(C=O)C13)C2OC(C)=O (stereo unspecified) |
| 236 to 238 °C | C/C(=N/NC(N)=O)C(=O)Nc1ccccc1 |
| 114 to 115 °C | O=[N+]([O-])c1cccc2cccc(/C=N\c3ccccc3)c12 |
| -1 °C | CCCCCCCCCCCCCC(=O)Cl |
| 168 °C | O=C(Nc1ccccc1/C=C/c1ccccc1)c1ccccc1 |
| 123 °C | N#CC(C(=O)N1CCOCC1)=C(SCc1ccccc1)SCc1ccccc1 |
| 280 °C | Cn1c(=O)c(C2=NNC(=O)C2=Cc2ccc(Cl)cc2Cl)c(O)c2ccccc21 |
| 169 to 171 °C | CSc1sc(C#N)c2c1C(=O)CC(C)(C)C2 |
| 296 °C | O=C(Nc1cccc2ccccc12)Nc1cccc2ccccc12 |
| 230 °C | C=C1C(=O)C23C4CC5C(C)(C)CCC(OC(C)=O)C5(C(OC(C)=O)O4)C2C(OC(C)=O)CC1C3OC(C)=O (stereo unspecified) |
| 188 °C | O=C1CC(c2ccccc2)Oc2cc(O)ccc21 (stereo unspecified) |
| 170 °C | N#Cc1ccc(S(N)(=O)=O)cc1 |
| 105 to 107 °C | C=CCC(=O)N1CCN(C(=O)OCC2c3ccccc3-c3ccccc32)CC1 |
| 126 °C | COc1ccc2ccccc2c1C |
| 62 °C | OCCc1cccc2ccccc12 |

— a melting point compilation (Tetko et al.)
